In test [1] the target is GDP-bound NRAS wild-type protein (Homo sapiens, UniProt P01111). The experiment in a line: Binding to NRAS by surface plasmon resonance (SPR), Single Cycle Kinetics. Conditions: KD ratio, GDP-bound NRAS wild-type vs GDP-bound KRAS wild-type, SPR. In general terms: Surface plasmon resonance follows binding to a sensor surface in real time, without labels.
Test [2] has as its target GDP-bound HRAS wild-type protein (Homo sapiens, UniProt P01112). The experiment in a line: Binding to HRAS by surface plasmon resonance (SPR), Single Cycle Kinetics. Conditions: KD ratio, GDP-bound HRAS wild-type vs GDP-bound KRAS wild-type, SPR.

GDP-bound HRAS wild-type protein, sequence (P01112 whole entry): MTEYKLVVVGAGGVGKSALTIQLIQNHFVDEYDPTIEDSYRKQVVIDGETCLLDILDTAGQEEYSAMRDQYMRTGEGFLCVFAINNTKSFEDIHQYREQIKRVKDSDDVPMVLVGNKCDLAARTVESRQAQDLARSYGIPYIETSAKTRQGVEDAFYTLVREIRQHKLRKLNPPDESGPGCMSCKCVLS
GDP-bound NRAS wild-type protein, sequence (P01111 whole entry): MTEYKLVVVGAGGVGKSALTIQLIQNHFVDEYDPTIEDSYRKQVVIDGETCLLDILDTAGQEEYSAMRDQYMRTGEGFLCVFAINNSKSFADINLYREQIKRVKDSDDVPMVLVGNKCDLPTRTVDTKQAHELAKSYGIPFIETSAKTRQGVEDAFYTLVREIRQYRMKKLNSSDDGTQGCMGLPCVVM

`CCO[C@@H]1C[C@H]2C(=O)NC3(CCC3)C(=O)N(C)[C@@H](C3CCCC3)C(=O)N(C)[C@H](C(=O)N(C)C)CC(=O)N(C)[C@@H](CC)C(=O)N[C@@H]([C@@H](C)CC)C(=O)N(C)CC(=O)N(C)[C@H]3CCCCN(C3=O)[C@@H](Cc3ccc(C(F)(F)F)cc3)C(=O)N(C)CC(=O)N[C@@H](CCc3ccc(C(F)(F)F)cc3F)C(=O)N2C1` [PP0885]: the “NRAS/KRAS (ratio of KD value with respect to NRAS to KD value with respect to KRAS)” value in test [1] was “C (A compound having a KD ratio of 0.1 or more and less than 3 is denoted as C)”. Further, the “HRAS/KRAS (ratio of KD value with respect to HRAS to KD value with respect to KRAS)” value in test [2] was “B (a compound having 3 or more and less than 10 is denoted as B)”.

`CCO[C@@H]1C[C@H]2C(=O)NC3(CCC3)C(=O)N(C)[C@@H](C3CCCC3)C(=O)N(C)[C@H](C(=O)N(C)C)CC(=O)N(C)[C@@H](CC)C(=O)N[C@@H]([C@@H](C)CC)C(=O)N(C)CC(=O)N(C)[C@H]3CCCCN(C3=O)[C@@H](Cc3ccc(C(F)(F)F)cc3)C(=O)N(C)CC(=O)N[C@@H](CCc3c(F)c(F)c(C(F)(F)F)c(F)c3F)C(=O)N2C1` [PP0886]: in test [1], the “NRAS/KRAS (ratio of KD value with respect to NRAS to KD value with respect to KRAS)” value was “C (A compound having a KD ratio of 0.1 or more and less than 3 is denoted as C)”. Further, the “HRAS/KRAS (ratio of KD value with respect to HRAS to KD value with respect to KRAS)” value in test [2] is “B (a compound having 3 or more and less than 10 is denoted as B)”.

Take `CCO[C@@H]1C[C@H]2C(=O)NC3(CCC3)C(=O)N(C)[C@@H](C3CCCC3)C(=O)N(C)[C@H](C(=O)N(C)C)CC(=O)N(C)[C@@H](CC)C(=O)N[C@@H]([C@@H](C)CC)C(=O)N(C)CC(=O)N(C)[C@H]3CCCCN(C3=O)[C@@H](Cc3ccc(C(F)(F)F)cc3)C(=O)N(C)CC(=O)N[C@@H](CCc3ccc4sccc4c3)C(=O)N2C1` [PP0887]: the “NRAS/KRAS (ratio of KD value with respect to NRAS to KD value with respect to KRAS)” value in test [1] is “C (A compound having a KD ratio of 0.1 or more and less than 3 is denoted as C)”. Besides, the “HRAS/KRAS (ratio of KD value with respect to HRAS to KD value with respect to KRAS)” value in test [2] is “C (A compound having a KD ratio of 0.1 or more and less than 3 is denoted as C)”.

For `CCO[C@@H]1C[C@H]2C(=O)NC3(CCC3)C(=O)N(C)[C@@H](C3CCCC3)C(=O)N(C)[C@H](C(=O)N(C)C)CC(=O)N(C)[C@@H](CC)C(=O)N[C@@H]([C@@H](C)CC)C(=O)N(C)CC(=O)N(C)[C@H]3CCCCN(C3=O)[C@@H](Cc3ccc(C(F)(F)F)cc3)C(=O)N(C)CC(=O)N[C@@H](CCc3ccc4ccsc4c3)C(=O)N2C1` [PP0888], the “NRAS/KRAS (ratio of KD value with respect to NRAS to KD value with respect to KRAS)” value in test [1] was “C (A compound having a KD ratio of 0.1 or more and less than 3 is denoted as C)”. Besides, the “HRAS/KRAS (ratio of KD value with respect to HRAS to KD value with respect to KRAS)” value in test [2] is “B (a compound having 3 or more and less than 10 is denoted as B)”.

Consider `CCO[C@@H]1C[C@H]2C(=O)NC3(CCC3)C(=O)N(C)[C@@H](C3CCCC3)C(=O)N(C)[C@H](C(=O)N(C)C)CC(=O)N(C)[C@@H](CC)C(=O)N[C@@H]([C@@H](C)CC)C(=O)N(C)CC(=O)N(C)[C@H]3CCCCCN(C3=O)[C@@H](Cc3ccc(C(F)(F)F)cc3)C(=O)N(C)CC(=O)N[C@@H](CCc3c(F)c(F)c(C(F)(F)F)c(F)c3F)C(=O)N2C1` [PP0891], for which the “NRAS/KRAS (ratio of KD value with respect to NRAS to KD value with respect to KRAS)” value in test [1] was “B (a compound having 3 or more and less than 10 is denoted as B)”. The “HRAS/KRAS (ratio of KD value with respect to HRAS to KD value with respect to KRAS)” value in test [2] is “B (a compound having 3 or more and less than 10 is denoted as B)”.

`CCO[C@@H]1C[C@H]2C(=O)NC3(CCC3)C(=O)N(C)[C@@H](C3CCCC3)C(=O)N(C)[C@H](C(=O)N(C)C)CC(=O)N(C)[C@@H](CC)C(=O)N[C@@H]([C@@H](C)CC)C(=O)N(C)CC(=O)N(C)[C@H]3CCCCCN(C3=O)[C@@H](Cc3ccc(C(F)(F)F)cc3)C(=O)N(C)CC(=O)N[C@@H](CCc3ccc4sccc4c3)C(=O)N2C1` [PP0892]: in test [1], the “NRAS/KRAS (ratio of KD value with respect to NRAS to KD value with respect to KRAS)” value was “B (a compound having 3 or more and less than 10 is denoted as B)”. Besides, the “HRAS/KRAS (ratio of KD value with respect to HRAS to KD value with respect to KRAS)” value in test [2] is “B (a compound having 3 or more and less than 10 is denoted as B)”.

For `CCCN1C(=O)CN(C)C(=O)CN(C)C(=O)[C@H]([C@@H](C)CC)NC(=O)[C@@H]2CCCCCOc3ccc(cc3)C[C@H]1C(=O)N(C)CC(=O)N[C@@H](CCc1cc(F)c(C(F)(F)F)c(F)c1)C(=O)N1C[C@H](OCC)C[C@H]1C(=O)NC1(CCCC1)C(=O)N(C)[C@@H](C1CCCC1)C(=O)N(C)[C@H](C(=O)N(C)C)CC(=O)N2C` [PP0895], the “NRAS/KRAS (ratio of KD value with respect to NRAS to KD value with respect to KRAS)” value in test [1] was “C (A compound having a KD ratio of 0.1 or more and less than 3 is denoted as C)”. Also, in test [2], the “HRAS/KRAS (ratio of KD value with respect to HRAS to KD value with respect to KRAS)” value was “C (A compound having a KD ratio of 0.1 or more and less than 3 is denoted as C)”.

Regarding `CCCN1C(=O)CN(C)C(=O)CN(C)C(=O)[C@H]([C@@H](C)CC)NC(=O)[C@@H]2CCCCCCOc3ccc(cc3)C[C@H]1C(=O)N(C)CC(=O)N[C@@H](CCc1cc(F)c(C(F)(F)F)c(F)c1)C(=O)N1C[C@H](OCC)C[C@H]1C(=O)NC1(CCCC1)C(=O)N(C)[C@@H](C1CCCC1)C(=O)N(C)[C@H](C(=O)N(C)C)CC(=O)N2C` [PP0896], the “NRAS/KRAS (ratio of KD value with respect to NRAS to KD value with respect to KRAS)” value in test [1] was “C (A compound having a KD ratio of 0.1 or more and less than 3 is denoted as C)”. The “HRAS/KRAS (ratio of KD value with respect to HRAS to KD value with respect to KRAS)” value in test [2] was “C (A compound having a KD ratio of 0.1 or more and less than 3 is denoted as C)”.

On to `CCO[C@@H]1C[C@H]2C(=O)NC3(CCC3)C(=O)N(C)[C@@H](C3CCCC3)C(=O)N(C)[C@H](C(=O)N(C)C)CC(=O)N(C)[C@@H](CC)C(=O)N[C@@H]([C@@H](C)CC)C(=O)N(C)CC(=O)N(C)[C@H]3CCCCCN(C3=O)[C@@H](Cc3ccc(F)c(F)c3)C(=O)N(C)CC(=O)N[C@@H](CCc3cc(F)c(C(F)(F)F)c(F)c3)C(=O)N2C1` [PP0907], for which the “NRAS/KRAS (ratio of KD value with respect to NRAS to KD value with respect to KRAS)” value in test [1] was “B (a compound having 3 or more and less than 10 is denoted as B)”. In test [2], the “HRAS/KRAS (ratio of KD value with respect to HRAS to KD value with respect to KRAS)” value is “B (a compound having 3 or more and less than 10 is denoted as B)”.

Take `CCO[C@@H]1C[C@H]2C(=O)NC3(CCC3)C(=O)N(C)[C@@H](C3CCCC3)C(=O)N(C)[C@H](C(=O)N(C)C)CC(=O)N(C)[C@@H](CC)C(=O)N[C@@H]([C@@H](C)CC)C(=O)N(C)CC(=O)N(C)[C@H]3CCCCCN(C3=O)[C@@H](Cc3ccc(F)cc3Cl)C(=O)N(C)CC(=O)N[C@@H](CCc3cc(F)c(C(F)(F)F)c(F)c3)C(=O)N2C1` [PP0908]: the “NRAS/KRAS (ratio of KD value with respect to NRAS to KD value with respect to KRAS)” value in test [1] was “B (a compound having 3 or more and less than 10 is denoted as B)”. In addition, in test [2], the “HRAS/KRAS (ratio of KD value with respect to HRAS to KD value with respect to KRAS)” value was “B (a compound having 3 or more and less than 10 is denoted as B)”.

For the compound `CCO[C@@H]1C[C@H]2C(=O)NC3(CCC3)C(=O)N(C)[C@@H](C3CCCC3)C(=O)N(C)[C@H](C(=O)N(C)C)CC(=O)N(C)[C@@H](CC)C(=O)N[C@@H]([C@@H](C)CC)C(=O)N(C)CC(=O)N(C)[C@H]3CCCCCN(C3=O)[C@@H](Cc3ccc(F)c(Cl)c3)C(=O)N(C)CC(=O)N[C@@H](CCc3cc(F)c(C(F)(F)F)c(F)c3)C(=O)N2C1` [PP0909], the “NRAS/KRAS (ratio of KD value with respect to NRAS to KD value with respect to KRAS)” value in test [1] was “B (a compound having 3 or more and less than 10 is denoted as B)”. Moreover, in test [2], the “HRAS/KRAS (ratio of KD value with respect to HRAS to KD value with respect to KRAS)” value was “B (a compound having 3 or more and less than 10 is denoted as B)”.

Take `CCO[C@@H]1C[C@H]2C(=O)NC3(CCC3)C(=O)N(C)[C@@H](C3CCCC3)C(=O)N(C)[C@H](C(=O)N(C)C)CC(=O)N(C)[C@@H](CC)C(=O)N[C@@H]([C@@H](C)CC)C(=O)N(C)CC(=O)N(C)[C@H]3CCCCCN(C3=O)[C@@H](Cc3ccc4ccsc4c3)C(=O)N(C)CC(=O)N[C@@H](CCc3cc(F)c(C(F)(F)F)c(F)c3)C(=O)N2C1` [PP0910]: the “NRAS/KRAS (ratio of KD value with respect to NRAS to KD value with respect to KRAS)” value in test [1] is “B (a compound having 3 or more and less than 10 is denoted as B)”. In test [2], the “HRAS/KRAS (ratio of KD value with respect to HRAS to KD value with respect to KRAS)” value is “B (a compound having 3 or more and less than 10 is denoted as B)”.

`CCO[C@@H]1C[C@H]2C(=O)NC3(CCC3)C(=O)N(C)[C@@H](C3CCCC3)C(=O)N(C)[C@H](C(=O)N(C)C)CC(=O)N(C)[C@@H](CC)C(=O)N[C@@H]([C@@H](C)CC)C(=O)N(C)CC(=O)N(C)[C@H]3CCCCCN(C3=O)[C@@H](Cc3ccc(F)cc3C)C(=O)N(C)CC(=O)N[C@@H](CCc3cc(F)c(C(F)(F)F)c(F)c3)C(=O)N2C1` [PP0911]: the “NRAS/KRAS (ratio of KD value with respect to NRAS to KD value with respect to KRAS)” value in test [1] is “B (a compound having 3 or more and less than 10 is denoted as B)”. In addition, in test [2], the “HRAS/KRAS (ratio of KD value with respect to HRAS to KD value with respect to KRAS)” value is “B (a compound having 3 or more and less than 10 is denoted as B)”.

Turning to `CCO[C@@H]1C[C@H]2C(=O)NC3(CCC3)C(=O)N(C)[C@@H](C3CCCC3)C(=O)N(C)[C@H](C(=O)N(C)C)CC(=O)N(C)[C@@H](CC)C(=O)N[C@@H]([C@@H](C)CC)C(=O)N(C)CC(=O)N(C)[C@H]3CCCCCN(C3=O)[C@@H](Cc3ccc(F)c(C)c3)C(=O)N(C)CC(=O)N[C@@H](CCc3cc(F)c(C(F)(F)F)c(F)c3)C(=O)N2C1` [PP0912], the “NRAS/KRAS (ratio of KD value with respect to NRAS to KD value with respect to KRAS)” value in test [1] was “B (a compound having 3 or more and less than 10 is denoted as B)”. The “HRAS/KRAS (ratio of KD value with respect to HRAS to KD value with respect to KRAS)” value in test [2] is “B (a compound having 3 or more and less than 10 is denoted as B)”.

For the compound `CCO[C@@H]1C[C@H]2C(=O)NC3(CCC3)C(=O)N(C)[C@@H](C3CCCC3)C(=O)N(C)[C@H](C(=O)N(C)C)CC(=O)N(C)[C@@H](CC)C(=O)N[C@@H]([C@@H](C)CC)C(=O)N(C)CC(=O)N(C)[C@H]3CCCCCN(C3=O)[C@@H](Cc3nccs3)C(=O)N(C)CC(=O)N[C@@H](CCc3cc(F)c(C(F)(F)F)c(F)c3)C(=O)N2C1` [PP0913], the “NRAS/KRAS (ratio of KD value with respect to NRAS to KD value with respect to KRAS)” value in test [1] was “B (a compound having 3 or more and less than 10 is denoted as B)”. Further, in test [2], the “HRAS/KRAS (ratio of KD value with respect to HRAS to KD value with respect to KRAS)” value is “B (a compound having 3 or more and less than 10 is denoted as B)”.

These data come from patent US20250230193A1, “CYCLIC COMPOUND HAVING SELECTIVE KRAS INHIBITORY EFFECT ON HRAS AND NRAS” (CHUGAI SEIYAKU KABUSHIKI KAISHA, priority 2022, published 2025).
